# In US20230416232A1, “PYRIMIDINE COMPOUNDS, COMPOSITIONS, AND MEDICINAL APPLICATIONS THEREOF” (Blueprint Medicines Corporation, priority 2020, published 2023):
# What was measured:
# Assay type in all cases: cell-based
# [1] = target: EGFR (H773insNPH) expressing Ba/F3 stable cell line (Homo sapiens, UniProt P00533, DUP771-773, cells depend on it); test: Cellular proliferation (Alamar Blue) assay, EGFR (H773insNPH) Ba/F3; details: 72 hr, read-out: NPH IC50
# Description: Cell line details: • 1. EGFR(D770_N771insSVD) expressing Ba/F3 stable cell line • 2. EGFR (A767_dupASV) expressing Ba/F3 stable cell line • 3. A431 cells • 4. EGFR (H773insNPH) expressing Ba/F3 stable cell line • 5. HER2 (A775_G776insYVMA) expressing Ba/F3 stable cell line
# • 1. Seed cells at 5000 for A431 and 15,000 cells for Ba/F3 in 100 μL/well in complete media (for A431: DMEM with 10% FBS and for Ba/F3 cells: RPMI with 10% FBS) in 96-well tissue culture plate. Leave outer wells without cells for background measurements. Incubate at 37 degree Celsius in 5% CO2 humidified incubator for 16-18 hours. • 2. Add 0.025 ml of 5X concentration compound dilution or DMSO control. Final compound concentration range is 10-0.0005 μM prepared in 3-fold serial dilutions. Incubate for 72 hr at 37 degree Celsius in 5% CO2 humidified incubator. • 3. Add 0.0125 ml Alamar Blue™ reagent to each well with multi-channel pipette and tap gently on each side of the plate to mix. Incubate for 3 hours at 37 degree Celsius in 5% CO2 humidified incubator. • 4. […] Data analysis was performed using XLfit 5.5.0.5.
# [2] = target: EGFR(D770_N771insSVD) expressing Ba/F3 stable cell line (Homo sapiens, UniProt P00533, DUP768-770, cells depend on it); test: Cellular proliferation (Alamar Blue) assay, EGFR(D770_N771insSVD) Ba/F3; details: 72 hr, read-out: D770 IC50
# EGFR(D770_N771insSVD) expressing Ba/F3 stable cell line, sequence (P00533 with tags, fused parts or gaps DUP768-770): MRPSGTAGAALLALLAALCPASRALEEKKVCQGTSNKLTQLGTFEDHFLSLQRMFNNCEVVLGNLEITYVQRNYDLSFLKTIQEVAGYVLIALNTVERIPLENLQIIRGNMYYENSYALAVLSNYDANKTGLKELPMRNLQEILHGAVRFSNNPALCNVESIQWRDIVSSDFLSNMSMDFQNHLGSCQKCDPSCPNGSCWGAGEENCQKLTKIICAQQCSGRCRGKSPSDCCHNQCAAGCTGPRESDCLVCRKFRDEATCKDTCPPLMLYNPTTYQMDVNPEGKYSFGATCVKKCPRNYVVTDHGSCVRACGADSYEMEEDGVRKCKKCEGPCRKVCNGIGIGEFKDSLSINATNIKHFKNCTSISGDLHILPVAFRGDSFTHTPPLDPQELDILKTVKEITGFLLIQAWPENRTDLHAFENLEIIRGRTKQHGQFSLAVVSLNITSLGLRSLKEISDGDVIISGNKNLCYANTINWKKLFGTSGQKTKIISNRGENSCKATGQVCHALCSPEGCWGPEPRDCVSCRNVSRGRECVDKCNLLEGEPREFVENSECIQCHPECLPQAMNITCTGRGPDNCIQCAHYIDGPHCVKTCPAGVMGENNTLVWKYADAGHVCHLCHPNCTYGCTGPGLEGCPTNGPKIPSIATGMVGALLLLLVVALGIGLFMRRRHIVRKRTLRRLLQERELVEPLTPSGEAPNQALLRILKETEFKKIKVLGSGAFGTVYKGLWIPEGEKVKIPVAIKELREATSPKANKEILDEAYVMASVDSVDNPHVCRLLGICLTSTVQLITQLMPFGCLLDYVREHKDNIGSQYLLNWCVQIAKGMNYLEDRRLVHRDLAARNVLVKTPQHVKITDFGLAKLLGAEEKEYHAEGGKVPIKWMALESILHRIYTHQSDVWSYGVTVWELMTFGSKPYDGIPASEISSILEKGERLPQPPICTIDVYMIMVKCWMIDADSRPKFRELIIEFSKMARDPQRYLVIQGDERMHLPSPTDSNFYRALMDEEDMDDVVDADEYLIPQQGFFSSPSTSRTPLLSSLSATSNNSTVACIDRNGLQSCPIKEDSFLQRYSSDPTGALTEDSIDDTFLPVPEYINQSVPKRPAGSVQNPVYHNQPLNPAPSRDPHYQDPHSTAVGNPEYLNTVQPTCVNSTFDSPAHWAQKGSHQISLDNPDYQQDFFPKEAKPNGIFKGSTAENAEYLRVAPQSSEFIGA
# Summary of the method: (§1)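 Ba/F3 cells (15,000/well, RPMI + 10% FBS) or A431 cells (5000/well, DMEM + 10% FBS) were seeded for 16-18 h at 37 °C, then treated 72 h with compound at a final 10-0.0005 μM (3-fold dilutions). Alamar Blue was added for 3 h before read-out.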
# [3] = target: EGFR (A767_dupASV) expressing Ba/F3 stable cell line (Homo sapiens, UniProt P00533, DUP767-769, cells depend on it); test: Cellular proliferation (Alamar Blue) assay, EGFR (A767_dupASV) Ba/F3; details: 72 hr, read-out: A767 IC50
# EGFR (A767_dupASV) expressing Ba/F3 stable cell line, sequence (P00533 with tags, fused parts or gaps DUP767-769): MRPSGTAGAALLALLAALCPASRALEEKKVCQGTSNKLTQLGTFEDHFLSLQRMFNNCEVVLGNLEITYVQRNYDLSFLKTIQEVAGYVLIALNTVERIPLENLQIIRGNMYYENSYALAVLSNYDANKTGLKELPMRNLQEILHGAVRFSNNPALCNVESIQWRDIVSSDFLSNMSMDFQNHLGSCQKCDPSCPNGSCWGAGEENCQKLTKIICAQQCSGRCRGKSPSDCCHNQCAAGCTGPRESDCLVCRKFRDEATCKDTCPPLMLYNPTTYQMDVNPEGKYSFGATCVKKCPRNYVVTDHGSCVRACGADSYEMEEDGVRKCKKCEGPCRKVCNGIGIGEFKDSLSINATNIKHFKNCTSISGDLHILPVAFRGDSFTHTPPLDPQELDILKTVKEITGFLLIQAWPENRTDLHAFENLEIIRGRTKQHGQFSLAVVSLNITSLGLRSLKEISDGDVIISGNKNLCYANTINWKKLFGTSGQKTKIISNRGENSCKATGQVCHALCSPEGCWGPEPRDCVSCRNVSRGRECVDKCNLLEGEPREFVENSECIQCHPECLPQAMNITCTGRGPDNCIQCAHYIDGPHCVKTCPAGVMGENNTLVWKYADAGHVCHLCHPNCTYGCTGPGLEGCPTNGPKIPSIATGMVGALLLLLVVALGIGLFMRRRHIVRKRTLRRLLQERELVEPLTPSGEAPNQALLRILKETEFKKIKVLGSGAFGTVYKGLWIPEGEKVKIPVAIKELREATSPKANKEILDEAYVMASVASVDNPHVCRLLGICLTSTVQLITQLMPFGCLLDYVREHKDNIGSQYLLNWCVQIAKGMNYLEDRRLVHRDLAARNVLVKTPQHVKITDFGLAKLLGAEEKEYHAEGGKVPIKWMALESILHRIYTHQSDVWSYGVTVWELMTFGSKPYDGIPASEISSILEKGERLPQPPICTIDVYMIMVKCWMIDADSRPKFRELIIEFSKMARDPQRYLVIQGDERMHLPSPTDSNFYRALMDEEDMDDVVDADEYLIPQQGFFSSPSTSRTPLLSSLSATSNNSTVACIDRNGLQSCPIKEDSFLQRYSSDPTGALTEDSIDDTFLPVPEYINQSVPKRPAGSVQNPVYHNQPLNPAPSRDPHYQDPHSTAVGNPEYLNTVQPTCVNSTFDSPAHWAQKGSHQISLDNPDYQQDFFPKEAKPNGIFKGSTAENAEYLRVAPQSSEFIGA
# Summary of the method: as §1
# A431 cells = test: Cellular proliferation (Alamar Blue) assay, A431 cells; details: Homo sapiens, A-431, 72 h, A431 cells; 72 hr; Alamar Blue; read-out: A431 IC50
# Summary of the method: as §1
# [4] = target: HER2 (A775_G776insYVMA) expressing Ba/F3 stable cell line (Homo sapiens, UniProt P04626, DUP772-775, cells depend on it); test: Cellular proliferation (Alamar Blue) assay, HER2 (A775_G776insYVMA) Ba/F3; details: HER2 (A775_G776insYVMA) Ba/F3 cells; 72 hr; Alamar Blue; read-out: YVMA IC50
# HER2 (A775_G776insYVMA) expressing Ba/F3 stable cell line, sequence (P04626 with tags, fused parts or gaps DUP772-775): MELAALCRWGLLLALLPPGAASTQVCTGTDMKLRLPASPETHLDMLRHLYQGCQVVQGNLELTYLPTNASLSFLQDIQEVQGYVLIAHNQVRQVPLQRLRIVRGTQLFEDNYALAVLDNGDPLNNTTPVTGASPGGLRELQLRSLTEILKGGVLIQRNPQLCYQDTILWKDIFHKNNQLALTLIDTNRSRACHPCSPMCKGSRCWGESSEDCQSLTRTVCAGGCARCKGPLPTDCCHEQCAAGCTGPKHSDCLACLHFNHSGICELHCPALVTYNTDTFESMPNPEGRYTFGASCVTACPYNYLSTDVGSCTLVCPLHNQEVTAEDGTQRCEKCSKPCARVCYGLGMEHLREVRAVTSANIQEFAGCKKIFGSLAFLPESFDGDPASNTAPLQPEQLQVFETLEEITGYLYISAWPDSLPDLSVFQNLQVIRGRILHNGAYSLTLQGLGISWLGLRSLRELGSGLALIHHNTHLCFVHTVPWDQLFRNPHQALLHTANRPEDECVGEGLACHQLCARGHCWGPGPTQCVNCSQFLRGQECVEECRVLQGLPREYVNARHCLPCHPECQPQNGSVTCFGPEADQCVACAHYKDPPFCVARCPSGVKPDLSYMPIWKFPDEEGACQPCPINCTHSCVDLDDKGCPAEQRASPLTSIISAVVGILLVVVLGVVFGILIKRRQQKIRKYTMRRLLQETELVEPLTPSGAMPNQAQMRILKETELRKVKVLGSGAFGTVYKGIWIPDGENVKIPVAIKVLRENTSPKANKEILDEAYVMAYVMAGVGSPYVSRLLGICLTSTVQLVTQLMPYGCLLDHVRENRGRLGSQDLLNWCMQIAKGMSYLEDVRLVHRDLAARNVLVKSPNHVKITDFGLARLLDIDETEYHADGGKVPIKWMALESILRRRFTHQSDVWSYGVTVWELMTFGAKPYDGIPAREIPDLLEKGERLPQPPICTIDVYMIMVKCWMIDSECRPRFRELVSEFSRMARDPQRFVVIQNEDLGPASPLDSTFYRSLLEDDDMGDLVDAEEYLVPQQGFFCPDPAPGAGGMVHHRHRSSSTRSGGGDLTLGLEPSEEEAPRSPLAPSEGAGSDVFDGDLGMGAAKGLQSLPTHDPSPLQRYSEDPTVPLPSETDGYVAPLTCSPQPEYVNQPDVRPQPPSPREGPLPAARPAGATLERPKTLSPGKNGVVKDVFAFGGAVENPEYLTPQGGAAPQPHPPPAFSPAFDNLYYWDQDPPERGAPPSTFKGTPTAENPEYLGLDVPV
# Summary of the method: as §1
# EGFR (H773insNPH) expressing Ba/F3 stable cell line, sequence (P00533 with tags, fused parts or gaps DUP771-773): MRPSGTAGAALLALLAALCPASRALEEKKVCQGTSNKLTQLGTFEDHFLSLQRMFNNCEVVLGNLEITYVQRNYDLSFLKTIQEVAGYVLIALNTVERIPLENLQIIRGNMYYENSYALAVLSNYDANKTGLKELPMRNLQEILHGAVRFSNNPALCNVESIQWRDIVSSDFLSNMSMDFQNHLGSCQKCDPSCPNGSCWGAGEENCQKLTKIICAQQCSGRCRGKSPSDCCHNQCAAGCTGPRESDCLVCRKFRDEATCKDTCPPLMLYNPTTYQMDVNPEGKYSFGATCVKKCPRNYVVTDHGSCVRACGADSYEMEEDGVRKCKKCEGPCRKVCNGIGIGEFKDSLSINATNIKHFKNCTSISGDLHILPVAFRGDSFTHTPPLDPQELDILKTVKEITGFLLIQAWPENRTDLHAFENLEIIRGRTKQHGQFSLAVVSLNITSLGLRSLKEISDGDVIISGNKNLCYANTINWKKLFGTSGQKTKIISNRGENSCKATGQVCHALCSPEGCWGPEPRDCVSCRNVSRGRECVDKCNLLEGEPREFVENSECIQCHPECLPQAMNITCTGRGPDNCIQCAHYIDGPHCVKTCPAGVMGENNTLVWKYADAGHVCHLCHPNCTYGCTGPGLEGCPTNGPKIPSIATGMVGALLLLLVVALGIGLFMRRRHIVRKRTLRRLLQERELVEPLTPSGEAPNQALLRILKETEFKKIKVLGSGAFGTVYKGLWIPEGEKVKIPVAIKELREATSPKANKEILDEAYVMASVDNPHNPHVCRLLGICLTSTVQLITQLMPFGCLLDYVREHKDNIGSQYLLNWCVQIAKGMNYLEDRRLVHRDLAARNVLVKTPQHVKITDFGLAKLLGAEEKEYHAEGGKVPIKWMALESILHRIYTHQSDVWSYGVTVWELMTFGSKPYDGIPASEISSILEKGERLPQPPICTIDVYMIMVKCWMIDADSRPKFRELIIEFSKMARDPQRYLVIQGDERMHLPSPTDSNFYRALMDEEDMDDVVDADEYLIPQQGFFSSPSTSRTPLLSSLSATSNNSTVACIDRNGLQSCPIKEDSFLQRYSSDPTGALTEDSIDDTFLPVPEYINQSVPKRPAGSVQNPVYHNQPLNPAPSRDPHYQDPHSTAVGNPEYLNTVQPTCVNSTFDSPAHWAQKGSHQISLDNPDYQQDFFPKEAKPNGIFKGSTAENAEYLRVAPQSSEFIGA
Compound,GI50 [1],GI50 [2],GI50 [3],IC50 (A431 cells),GI50 [4]
"C=CC(=O)Nc1ccc(F)c(Nc2nc(Nc3cnn(C)c3)ncc2-c2ccc(C(F)(F)F)c(F)c2)c1 [Compound 35, N-(4-fluoro-3-((5-(3-fluoro-4-(trifluoromethyl)phenyl)-2-((1-methyl-1H-pyrazol-4-yl)amino)pyrimidin-4-yl)amino)phenyl)acrylamide]",84 nM,35 nM,99 nM,45 nM,99 nM
"C=CC(=O)Nc1ccc(F)c(Nc2nc(Nc3cnn(CCO)c3)ncc2-c2ccc(Br)c(F)c2)c1 [Compound 96, N-(3-((5-(4-bromo-3-fluorophenyl)-2-((1-(2-hydroxyethyl)-1H-pyrazol-4-yl)amino)pyrimidin-4-yl)amino)-4-fluorophenyl)acrylamide]",96 nM,25 nM,28 nM,37 nM,56 nM
"C=CC(=O)Nc1ccc(F)c(Nc2nc(Nc3cnn(C)c3)ncc2-c2ccc(N3CCCCC3)c(F)c2)c1 [Compound 78, N-(4-fluoro-3-((5-(3-fluoro-4-(piperidin-1-yl)phenyl)-2-((1-methyl-1H-pyrazol-4-yl)amino)pyrimidin-4-yl)amino)phenyl)acrylamide]",144 nM,111 nM,59 nM,102 nM,286 nM
"C=CC(=O)Nc1ccc(F)c(Nc2nc(Nc3cnn(C)c3)ncc2-c2ccc(F)c(F)c2)c1 [Compound 5, N-(3-((5-(3,4-difluorophenyl)-2-((1-methyl-1H-pyrazol-4-yl)amino)pyrimidin-4-yl)amino)-4-fluorophenyl)acrylamide]",79 nM,30 nM,39 nM,200 nM,208 nM
"C=CC(=O)Nc1ccc(F)c(Nc2nc(Nc3cnn(C)c3)ncc2-c2ccc(OC)cc2F)c1 [Compound 7, N-(4-fluoro-3-((5-(2-fluoro-4-methoxyphenyl)-2-((1-methyl-1H-pyrazol-4-yl)amino)pyrimidin-4-yl)amino)phenyl)acrylamide]",97 nM,94 nM,97 nM,229 nM,377 nM
"C=CC(=O)Nc1ccc(F)c(Nc2nc(Nc3cnn(CCN(C)C)c3)ncc2-c2ccc(Br)c(Cl)c2)c1 [Compound 89, N-(3-((5-(4-bromo-3-chlorophenyl)-2-((1-(2-(dimethylamino)ethyl)-1H-pyrazol-4-yl)amino)pyrimidin-4-yl)amino)-4-fluorophenyl)acrylamide]",56 nM,102 nM,108 nM,343 nM,123 nM
"C=CC(=O)Nc1cccc(Nc2nc(Nc3cnn(C)c3)ncc2-c2ccc(F)c(Cl)c2)c1 [Compound 49, N-(3-((5-(3-chloro-4-fluorophenyl)-2-((1-methyl-1H-pyrazol-4-yl)amino)pyrimidin-4-yl)amino)phenyl)acrylamide]",27 nM,38 nM,44 nM,246 nM,65 nM
"C=CC(=O)Nc1ccc(F)c(Nc2nc(Nc3cnn(C)c3)ncc2-c2ccc(N3CCOCC3)c(F)c2)c1 [Compound 76, N-[4-fluoro-3-({5-[3-fluoro-4-(morpholin-4-yl)phenyl]-2-[(1-methyl-1H-pyrazol-4-yl)amino]pyrimidin-4-yl}amino)phenyl]prop-2-enamide]",236 nM,220 nM,72 nM,1260 nM,240 nM
"C=CC(=O)Nc1ccc(F)c(Nc2nc(Nc3cnn(C)c3)ncc2-c2ccc(F)c(C(F)(F)F)c2)c1 [Compound 25, N-(4-fluoro-3-((5-(4-fluoro-3-(trifluoromethyl)phenyl)-2-((1-methyl-1H-pyrazol-4-yl)amino)pyrimidin-4-yl)amino)phenyl)acrylamide]",91 nM,102 nM,87 nM,49 nM,341 nM
"C=CC(=O)Nc1ccc(F)c(Nc2nc(Nc3cnn(C)c3)ncc2-c2cc(F)cc(C(F)(F)F)c2)c1 [Compound 27, N-(4-fluoro-3-((5-(3-fluoro-5-(trifluoromethyl)phenyl)-2-((1-methyl-1H-pyrazol-4-yl)amino)pyrimidin-4-yl)amino)phenyl)acrylamide]",55 nM,35 nM,31 nM,73 nM,150 nM
"C=CC(=O)Nc1ccc(F)c(Nc2nc(Nc3cn(C)nc3Cl)ncc2-c2ccc(Br)c(F)c2)c1 [Compound 92, N-(3-((5-(4-bromo-3-fluorophenyl)-2-((3-chloro-1-methyl-1H-pyrazol-4-yl)amino)pyrimidin-4-yl)amino)-4-fluorophenyl)acrylamide]",54 nM,74 nM,102 nM,45 nM,113 nM
"C=CC(=O)Nc1ccc(F)c(Nc2nc(Nc3cnn(C4COC4)c3)ncc2-c2ccc(Cl)c(Cl)c2)c1 [Compound 56, N-(3-((5-(3,4-dichlorophenyl)-2-((1-(oxetan-3-yl)-1H-pyrazol-4-yl)amino)pyrimidin-4-yl)amino)-4-fluorophenyl)acrylamide]",84 nM,104 nM,95 nM,587 nM,118 nM
"C=CC(=O)Nc1ccc(F)c(Nc2nc(Nc3cnn(C)c3)ncc2-c2ccc(N3CCCC3)c(F)c2)c1 [Compound 77, N-(4-fluoro-3-((5-(3-fluoro-4-(pyrrolidin-1-yl)phenyl)-2-((1-methyl-1H-pyrazol-4-yl)amino)pyrimidin-4-yl)amino)phenyl)acrylamide]",353 nM,340 nM,113 nM,297 nM,584 nM

# Other lines, results leading:
GI50 [1],GI50 [2],GI50 [3],IC50 (A431 cells),GI50 [4],Compound
61 nM,32 nM,26 nM,70 nM,86 nM,"C=CC(=O)Nc1ccc(F)c(Nc2nc(Nc3cnn(C)c3)ncc2-c2ccc(Cl)c(Cl)c2)c1 [Compound 50, N-(3-((5-(3,4-dichlorophenyl)-2-((1-methyl-1H-pyrazol-4-yl)amino)pyrimidin-4-yl)amino)-4-fluorophenyl)acrylamide]"
30 nM,17 nM,29 nM,102 nM,34 nM,"C=CC(=O)Nc1ccc(F)c(Nc2nc(Nc3cnn(C)c3)ncc2-c2cnc(C)c(Cl)c2)c1 [Compound 46, N-(3-((5-(5-chloro-6-methylpyridin-3-yl)-2-((1-methyl-1H-pyrazol-4-yl)amino)pyrimidin-4-yl)amino)-4-fluorophenyl)acrylamide]"
160 nM,294 nM,159 nM,> 10000 nM,1160 nM,"C=CC(=O)Nc1ccc(F)c(Nc2nc(Nc3cnn(C)c3)ncc2-c2cc(Cl)cc(Cl)c2)c1 [Compound 32, N-(3-((5-(3,5-dichlorophenyl)-2-((1-methyl-1H-pyrazol-4-yl)amino)pyrimidin-4-yl)amino)-4-fluorophenyl)acrylamide]"
83 nM,51 nM,80 nM,810 nM,187 nM,"C=CC(=O)Nc1ccc(F)c(Nc2nc(Nc3cnn(C)c3)ncc2-c2ccc(F)c(Cl)c2)c1 [Compound 6, N-(3-((5-(3-chloro-4-fluorophenyl)-2-((1-methyl-1H-pyrazol-4-yl)amino)pyrimidin-4-yl)amino)-4-fluorophenyl)acrylamide]"
96 nM,35 nM,32 nM,75 nM,42 nM,"C=CC(=O)Nc1ccc(F)c(Nc2nc(Nc3cnn(C)c3)ncc2-c2cnc(Cl)c(Cl)c2)c1 [Compound 17, N-(3-((5-(5,6-dichloropyridin-3-yl)-2-((1-methyl-1H-pyrazol-4-yl)amino)pyrimidin-4-yl)amino)-4-fluorophenyl)acrylamide]"
103 nM,90 nM,91 nM,2320 nM,432 nM,"C=CC(=O)Nc1ccc(F)c(Nc2nc(Nc3cnn(C)c3)ncc2-c2ccc(OC)c(Cl)c2)c1 [Compound 3, N-(3-((5-(3-chloro-4-methoxyphenyl)-2-((1-methyl-1H-pyrazol-4-yl)amino)pyrimidin-4-yl)amino)-4-fluorophenyl)acrylamide]"
